Measured values as given in patent US8802597B2, “Herbicidal pyrimidines” (E I du Pont de Nemours and Company, priority 2003, dated 2014).

Columns and labels:
Test in all cases: Test E flooded paddy water application
Type in all cases: in vivo
[1] = tested on: late watergrass (Echinochloa oryzicola); details: Flood, 21 days, scale 0 to 100 (0 no effect, 100 complete control); for Plant response rating, Watergrass, Late: 16 g ai/ha
Procedure, shortened: (§1)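 Greenhouse pots of Tama silt loam with weeds and rice at 2.0–2.5-leaf stage, flooded to 3 cm; compounds applied directly into paddy water, depth maintained. Visual rating versus untreated controls after 21 days, 0 (no effect) to 100 (complete control); 29.5/26.7 °C, 16-h photoperiod.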

[2] = tested on: junglerice (Echinochloa colona); details: Flood, 21 days, scale 0 to 100 (0 no effect, 100 complete control); for Plant response rating, Junglerice: 16 g ai/ha
Procedure, shortened: as §1

[3] = tested on: rice flatsedge (Cyperus iria); details: Flood, 21 days, scale 0 to 100 (0 no effect, 100 complete control); for Plant response rating, Flatsedge, Rice: 16 g ai/ha
Procedure, shortened: as §1

[4] = tested on: smallflower umbrella sedge (Cyperus difformis); details: Flood, 21 days, scale 0 to 100 (0 no effect, 100 complete control); for Plant response rating, Sedge, Umbrella: 16 g ai/ha
Procedure, shortened: as §1

[5] = tested on: bearded (brdd.) sprangletop (Leptochloa fusca ssp. fascicularis); details: Flood, 21 days, scale 0 to 100 (0 no effect, 100 complete control); for Plant response rating, Sprangletop, Brdd.: 16 g ai/ha
Procedure, shortened: as §1

[6] = tested on: barnyardgrass (Echinochloa crus-galli); details: Flood, 21 days, scale 0 to 100 (0 no effect, 100 complete control); for Plant response rating, Barnyardgrass: 16 g ai/ha
Procedure, shortened: as §1

Row | SMILES | Watergrass, Late plant response rating ([1]; 32 g ai/ha) | Watergrass, Late plant response rating ([1]; 64 g ai/ha) | Watergrass, Late plant response rating ([1]; 125 g ai/ha) | Watergrass, Late plant response rating ([1]; 250 g ai/ha) | Plant response rating, Watergrass, Late [1] | Junglerice plant response rating ([2]; 32 g ai/ha) | Junglerice plant response rating ([2]; 64 g ai/ha) | Junglerice plant response rating ([2]; 125 g ai/ha) | Junglerice plant response rating ([2]; 250 g ai/ha) | Plant response rating, Junglerice [2] | Flatsedge, Rice plant response rating ([3]; 32 g ai/ha) | Flatsedge, Rice plant response rating ([3]; 64 g ai/ha) | Flatsedge, Rice plant response rating ([3]; 125 g ai/ha) | Flatsedge, Rice plant response rating ([3]; 250 g ai/ha) | Plant response rating, Flatsedge, Rice [3] | Sedge, Umbrella plant response rating ([4]; 32 g ai/ha) | Sedge, Umbrella plant response rating ([4]; 64 g ai/ha) | Sedge, Umbrella plant response rating ([4]; 125 g ai/ha) | Sedge, Umbrella plant response rating ([4]; 250 g ai/ha) | Plant response rating, Sedge, Umbrella [4] | also measured
1 | CCOC(=O)c1nc(-c2ccc3c(c2)OCO3)nc(N)c1Cl [Compound 74] | 0 | 0 | 0 | 0 | 0 | 0 | 0 | 0 | 65 | 0 | 0 | 0 | 90 | 95 | 0 | 0 | 80 | 95 | 100 | 0 | Sprangletop, Brdd. plant response rating ([5]; 32 g ai/ha): 0; Sprangletop, Brdd. plant response rating ([5]; 64 g ai/ha): 0; Sprangletop, Brdd. plant response rating ([5]; 125 g ai/ha): 0; Sprangletop, Brdd. plant response rating ([5]; 250 g ai/ha): 0; Plant response rating, Sprangletop, Brdd. [5]: 0; Barnyardgrass plant response rating ([6]; 32 g ai/ha): 0; Barnyardgrass plant response rating ([6]; 64 g ai/ha): 0; Barnyardgrass plant response rating ([6]; 250 g ai/ha): 0; Plant response rating, Barnyardgrass [6]: 0
2 | COC(=O)c1nc(-c2ccc(I)cc2)nc(N)c1Br [Compound 128] | 0 | 0 | 0 | 0 | 0 | 0 | 0 | 0 | 10 | 0 | 0 | 0 | 60 | 80 | 0 | 60 | 70 | 100 | 100 | 0 | Sprangletop, Brdd. plant response rating ([5]; 32 g ai/ha): 0; Sprangletop, Brdd. plant response rating ([5]; 64 g ai/ha): 0; Sprangletop, Brdd. plant response rating ([5]; 125 g ai/ha): 0; Sprangletop, Brdd. plant response rating ([5]; 250 g ai/ha): 80; Plant response rating, Sprangletop, Brdd. [5]: 0; Barnyardgrass plant response rating ([6]; 32 g ai/ha): 0; Barnyardgrass plant response rating ([6]; 64 g ai/ha): 0; Barnyardgrass plant response rating ([6]; 125 g ai/ha): 0; Barnyardgrass plant response rating ([6]; 250 g ai/ha): 0; Plant response rating, Barnyardgrass [6]: 0
3 | CCOC(=O)c1nc(-c2ccc(Cl)cc2)nc(N)c1Br [Compound 37] | 0 | 0 | 0 | 0 | 0 | 0 | 0 | 0 | 0 | 0 | 0 | 0 | 75 | 90 | 0 | 50 | 50 | 65 | 95 | 30 | Sprangletop, Brdd. plant response rating ([5]; 32 g ai/ha): 0; Sprangletop, Brdd. plant response rating ([5]; 64 g ai/ha): 0; Sprangletop, Brdd. plant response rating ([5]; 125 g ai/ha): 0; Sprangletop, Brdd. plant response rating ([5]; 250 g ai/ha): 0; Plant response rating, Sprangletop, Brdd. [5]: 0; Barnyardgrass plant response rating ([6]; 64 g ai/ha): 0; Barnyardgrass plant response rating ([6]; 125 g ai/ha): 0; Barnyardgrass plant response rating ([6]; 250 g ai/ha): 0; Plant response rating, Barnyardgrass [6]: 0
